Reference: US10022374B2, “Certain protein kinase inhibitors” (Shanghai Fochon Pharmaceutical Co., Ltd., priority 2013, dated 2018)
Where two headings read alike, the source gives them in different places.

What was measured:
[1] = system: HT-29 cells; assay: Inhibition of cell proliferation (MTS), HT-29 cells; type: cell-based; details: Homo sapiens, HT-29, 72 h
Protocol: (§1) MTS testing kit was purchased from Promega. The DMEM, RPMI-1640 and Fetal bovine serum were purchased from Gibco. Dimethyl sulfoxide (DMSO) was purchased from Sigma.
(§2) To investigate whether a compound is able to inhibit the activity of MEK in cells, a mechanism-based assay using A-375 and HT-29 cell was developed. In this assay, inhibition of MEK was detected by the inhibition of A-375 and HT-29 cells proliferation. A-375 and HT-29 cells were cultured in culture flasks to 40-80% confluence respectively in DMEM and RPMI-1640 plus 10% fetal bovine serum. Cells were collected and plated onto 96-well plates at desired cell density (A-375: 3000 cells/well; HT-29: 5000 cells/well). Plates were incubated overnight at 37° C., with 5% CO2 to adhere. Compounds were added to the plates. The final compound concentrations were […], 12.35, 4.12, 1.37, 0.46 and 0.15 nM, respectively. Place plates at 37° C., with 5% CO2 for 72 h. 10 μl MTS were added to each well and incubate the plates for exactly 2 hours. Absorbance was measured at 490 nm. […] was calculated using GraphPad Prism 5.0.

[2] = system: A-375 cells; assay: Inhibition of cell proliferation (MTS), A-375 cells; type: cell-based; details: Homo sapiens, A-375, 72 h
Protocol: as §1, §2

[3] = HT-29 cells, 5000 cells/well, 72 h, MTS, absorbance 490 nm, read-out: HT29 IC50
[4] = A-375 cells, 3000 cells/well, 72 h, MTS, absorbance 490 nm, read-out: A375 IC50

SMILES	IC50 [1, 3]	IC50 [2, 4]	IC50 ([1]; read-out: HT29 IC50 (nM))	IC50 ([2]; read-out: A375 IC50 (nM))
CC(=O)Nc1cccc(-c2nn(C)c(=O)c3c(Nc4ccc(I)cc4F)c(F)c(=O)n(C)c23)c1 [Example 21, N-(3-(3-fluoro-4-(2-fluoro-4-iodophenylamino)-1,6-dimethyl-2,5-dioxo-1,2,5,6-tetrahydropyrido[2,3-d]pyridazin-8-yl)phenyl)acetamide]	< 1 nM	3.9 nM	–	–
C=CCn1nc(-c2cccc(NC(=O)C(C)C)c2)c2c(c(Nc3ccc(I)cc3F)c(F)c(=O)n2C)c1=O [Example 35, N-(3-(6-allyl-3-fluoro-4-(2-fluoro-4-iodophenylamino)-1-methyl-2,5-dioxo-1,2,5,6-tetrahydropyrido[2,3-d]pyridazin-8-yl)phenyl)isobutyramide]	22.6 nM	26.3 nM	–	–
Cn1nc(-c2cccc(N3CCCC3=O)c2)c2c(c(Nc3ccc(I)cc3F)c(F)c(=O)n2C)c1=O [Example 54, 3-fluoro-4-((2-fluoro-4-iodophenyl)amino)-1,6-dimethyl-8-(3-(2-oxopyrrolidin-1-yl)phenyl)pyrido[2,3-d]pyridazine-2,5(1H,6H)-dione]	–	–	7.9 nM	4.7 nM
CCn1nc(-c2cccc(NC(C)=O)c2)c2c(c(Nc3ccc(I)cc3F)c(F)c(=O)n2C)c1=O [Example 24, N-(3-(6-ethyl-3-fluoro-4-(2-fluoro-4-iodophenylamino)-1-methyl-2,5-dioxo-1,2,5,6-tetrahydropyrido[2,3-d]pyridazin-8-yl)phenyl)acetamide]	6.1 nM	13.7 nM	–	–
C=CCn1nc(-c2cccc(NC(C)=O)c2)c2c(c(Nc3ccc(Br)cc3F)c(F)c(=O)n2C)c1=O [Example 36, N-(3-(6-allyl-4-(4-bromo-2-fluorophenylamino)-3-fluoro-1-methyl-2,5-dioxo-1,2,5,6-tetrahydropyrido[2,3-d]pyridazin-8-yl)phenyl)acetamide]	427 nM	341 nM	–	–
C=CCn1nc(-c2cccc(NC(C)=O)c2)c2c(c(Nc3ccc(I)cc3F)c(F)c(=O)n2C)c1=O [Example 28, N-(3-(6-allyl-3-fluoro-4-(2-fluoro-4-iodophenylamino)-1-methyl-2,5-dioxo-1,2,5,6-tetrahydropyrido[2,3-d]pyridazin-8-yl)phenyl)acetamide]	6.4 nM	1.6 nM	–	–
CCn1nc(-c2cccc(NS(=O)(=O)C(C)C)c2)c2c(c(Nc3ccc(I)cc3F)c(F)c(=O)n2C)c1=O [Example 26, N-(3-(6-ethyl-3-fluoro-4-(2-fluoro-4-iodophenylamino)-1-methyl-2,5-dioxo-1,2,5,6-tetrahydropyrido[2,3-d]pyridazin-8-yl)phenyl)propane-2-sulfonamide]	< 1 nM	11.9 nM	–	–
CC(C)S(=O)(=O)Nc1cccc(-c2nn(C3CC3)c(=O)c3c(Nc4ccc(I)cc4F)c(F)c(=O)n(C)c23)c1 [Example 7, N-(3-(6-cyclopropyl-3-fluoro-4-(2-fluoro-4-iodophenylamino)-1-methyl-2,5-dioxo-1,2,5,6-tetrahydropyrido[2,3-d]pyridazin-8-yl)phenyl)propane-2-sulfonamide]	4.1 nM	3.5 nM	–	–
CCS(=O)(=O)Nc1cccc(-c2nn(CC(O)CO)c(=O)c3c(Nc4ccc(I)cc4F)c(F)c(=O)n(C)c23)c1 (centres unmarked) [Example 44, N-(3-(6-(2,3-dihydroxypropyl)-3-fluoro-4-(2-fluoro-4-iodophenylamino)-1-methyl-2,5-dioxo-1,2,5,6-tetrahydropyrido[2,3-d]pyridazin-8-yl)phenyl)ethanesulfonamide]	57.7 nM	71.3 nM	–	–
CCC(=O)Nc1cccc(-c2nn(C(C)C)c(=O)c3c(Nc4ccc(I)cc4F)c(F)c(=O)n(C)c23)c1 [Example 10, N-(3-(3-fluoro-4-(2-fluoro-4-iodophenylamino)-6-isopropyl-1-methyl-2,5-dioxo-1,2,5,6-tetrahydropyrido[2,3-d]pyridazin-8-yl)phenyl)propionamide]	59.6 nM	61.2 nM	–	–
